Results from US20200131144A1, “AMINE OR (THIO)AMIDE CONTAINING LXR MODULATORS” (Phenex-FXR GmbH, priority 2017, published 2020).

How the values were obtained:
[1] = Chemical stability of stock solutions and solids; format: physicochemical; conditions: sodium salt
Description: To a solution of compound 7/9 (150 mg, 0.24 mmol) in MeOH (10 mL) and water (10 mL) was added NaOH ([…], 0.48 mmol) at rt. The mixture was stirred at rt overnight and concentrated. The residue was washed with H2O to give compound 14 as a white solid.
(§1) The tested compounds were usually dissolved, tested and stored as 20 mM stock solutions in DMSO. Since sulfonyl acetic acid derivatives tend to decarboxylate under these conditions, these stock solutions were prepared, tested and stored as 20 mM DMSO stock solutions containing 100 mM trifluoroacetic acid (5 equivalents). Sulfonyl acetic acid derivatives are shelf stable as solid at rt for long time as reported by Griesbrecht et al. (Synlett 2010:374) or Faucher et al. (J. Med. Chem. 2004; 47:18).

[2] = molecular target: T1, LXRβ ligand-binding domain (LBD) (Homo sapiens, UniProt P55055, INS174Q); assay: LXR Gal4 reporter transient transfection assay, mammalian two-hybrid, LBD-M2H Gal4β; format: cell-based; conditions: HEK293 cells; inverse agonist unless *
T1 construct: or LXR (amino acids 156-461); expressed in transfected cells; host or cells: HEK293
T1 sequence (P55055 with tags, fused parts or gaps INS174Q limits assumed): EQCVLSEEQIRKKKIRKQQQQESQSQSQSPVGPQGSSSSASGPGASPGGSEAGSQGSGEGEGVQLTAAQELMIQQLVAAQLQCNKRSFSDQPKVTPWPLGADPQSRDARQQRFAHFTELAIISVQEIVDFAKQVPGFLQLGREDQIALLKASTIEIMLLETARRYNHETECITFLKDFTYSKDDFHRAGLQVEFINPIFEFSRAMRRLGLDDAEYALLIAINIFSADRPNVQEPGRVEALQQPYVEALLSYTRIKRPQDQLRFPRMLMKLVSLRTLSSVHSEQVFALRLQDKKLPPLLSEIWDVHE
Description: as §1
(§2) LXR Gal4 Reporter Transient Transfection Assays
(§3) LXRα and LXRβ activity status was determined via detection of interaction with coactivator and corepressor proteins in mammalian two-hybrid experiments (M2H). For this, via transient transfection the full length (FL) proteins of LXRα (amino acids 1-447; NP005684; SEQ ID NO:1) or LXRβ-(amino acids 1-461; NP009052; SEQ ID NO:2) or the ligand-binding domains (LBD) of LXRα (amino acids 155-447 SEQ ID NO:3) or LXR (amino acids 156-461; SEQ ID NO:4) were expressed from pCMV-AD (Stratagene) as fusions to the transcriptional activation domain of NFkB. As cofactors, domains of either the steroid receptor coactivator 1 (SRC1; amino acids 552-887; SEQ ID NO:5) or of the corepressor NCoR (amino acids 1906-2312; NP006302; SEQ ID NO:6) were expressed as fusions to the DNA binding domain of the yeast transcription factor GAL4 (from pCMV-BD; Stratagene). Interaction was monitored via activation of a coexpressed Firefly Luciferase Reporter gene under control of a promoter containing repetitive GAL4 response elements (vector pFRLuc; Stratagene). Transfection efficiency was controlled via cotransfection of constitutively active pRL-CMV Renilla reniformis luciferase reporter (Promega). HEK293 cells were grown in minimum essential medium (MEM) with 2 mM L-glutamine and Earle's balanced salt solution supplemented with 8.3% fetal bovine serum, 0.1 mM non-essential amino acids, 1 mM sodium pyruvate, at 37° C. in 5% CO2. 3.5×10^4 cells/well were plated in 96-well cell culture plates in growth medium supplemented with 8.3% fetal bovine serum for 16-20 h to—90% confluency. For transfection, medium was taken off and LXR and cofactor expressing plasmids as well as the reporter plasmids are added in 30 μL OPTIMEM/well including polyethylene-imine (PEI) as vehicle. Typical amounts of plasmids transfected/well: pCMV-AD-LXR (5 ng), pCMV-BD-cofactor (5 ng), pFR-Luc (100 ng), pRL-CMV (0.5 ng). Compound stocks were prepared in DMSO, prediluted in MEM to a total volume of 120 μL, and added 4 h after addition of the transfection mixture (final vehicle concentration not exceeding 0.2%). Cells were incubated for additional 16 h, lysed for 10 min in 1×Passive Lysis Buffer (Promega) and Firefly and Renilla luciferase activities were measured sequentially in the same cell extract using buffers containing D-luciferine and coelenterazine, respectively. Measurements of luminescence were done in a BMG-luminometer.

[3] = molecular target: T2, LXRα ligand-binding domain (LBD) (Homo sapiens, UniProt Q13133); assay: LXR Gal4 reporter transient transfection assay, mammalian two-hybrid, LBD-M2H Gal4α; format: cell-based; conditions: HEK293 cells; inverse agonist unless *
T2 construct: expressed in transfected cells; host or cells: HEK293
T2 sequence (Q13133 155-447): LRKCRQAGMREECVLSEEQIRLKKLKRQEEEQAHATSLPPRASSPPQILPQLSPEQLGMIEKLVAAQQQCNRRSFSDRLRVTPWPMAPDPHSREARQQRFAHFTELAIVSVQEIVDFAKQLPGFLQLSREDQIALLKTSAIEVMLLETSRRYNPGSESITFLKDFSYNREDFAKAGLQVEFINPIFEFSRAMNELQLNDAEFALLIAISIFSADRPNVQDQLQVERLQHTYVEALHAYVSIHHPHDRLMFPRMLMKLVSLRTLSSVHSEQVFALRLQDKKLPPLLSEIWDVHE
Description: as §1, §2, §3

[4] = molecular target: T3, GST-LXRβ ligand-binding domain (Homo sapiens, UniProt P55055, INS174Q); assay: TR-FRETβ activity assay (NCoA3 coactivator peptide recruitment); format: biochemical; conditions: 1 μM 24(S)-25-epoxycholesterol as prestimulating agonist; inverse agonist unless *
T3 construct: amino acids 156-461; NP009052; made in house; host or cells: E. coli
T3 sequence (P55055 with tags, fused parts or gaps INS174Q limits assumed): T1 sequence (P55055 with tags, fused parts or gaps INS174Q limits assumed)
Procedure, shortened: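 Coactivator recruitment read as TR-FRET (ex 340, em 615 and 665 nm) after 1 h equilibration at 4° C, in triplicate. Mix held 76 nM GST-tagged LXRβ LBD (aa 156-461, E. coli), 400 nM biotin-NCoA3 peptide, Tb-cryptate anti-GST, streptavidin-XL665, 240 mM KCl buffer.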

EC50 [2]: < 100 nM | EC50 [3]: 1000 to 10000 nM | EC50 [4]: 1000 to 10000 nM
SMILES: COc1cc(-c2ccc(CO)c(C(C)(C)C(=O)[O-])c2)ccc1CN(Cc1ccc(C(F)(F)F)o1)Cc1c(C)ccc2ccccc12.[Na+] [Example 14]
stability upon standing [1]: tends to cyclisize back to lacton 7/9 upon standing
